Data on four compounds can be found in US6482411B1, “Methods of reducing bone loss with CD40 ligand” (Board of Regents, The University of Texas System, priority 1999, dated 2002).

Marks after values point to notes of the source that are not given here.

Series [1] concerns MLO-Y4 osteocytic cell line. Nature of the series: Trypan blue exclusion (cell death) in MLO-Y4 cells. Format: cell-based, murine. The settings on record: CD40L pretreatment 15 min where given, then dexamethasone 10^-6 M (10^-7 M earlier), TNFα or etoposide 50 μM for 6 h. The procedure:
The MLO-[…][…] (0.5-1.5 μg/ml) for 15 mins. followed by treatment with either dexamethasone at 10^-6 M (10^-7M in earlier studies), TNFα at 1 ng/ml or etoposide at 50 μM for 6 hrs. […] Trypan Blue Exclusion: Staining of cultured cells with vital dyes such as trypan blue is commonly used approach to quantify cell death. This is based on the premise that viable cells with intact membranes will exclude specific dyes such as trypan blue, which can easily be quantified under light microscopy ([…], 1998). The percentage of trypan blue positive cells in each culture condition was used to calculate cell survival. This method is […] for screening multiple samples or treatment conditions, but can underestimate cell death since membrane integrity can be intact until late in apoptosis. Trypan vital dye staining is not specific for apoptosis and will also stain necrotic cells. This was confirmed by additional analysis discussed below. Apoptosis of MLO-Y4 or calvaria cells was quantified by trypan blue staining (Jilka et al., 1998). Nonadherent cells were combined with adherent cells released from the culture dish using trypsin-EDTA, resuspended in medium containing serum, and collected by centrifugation. […] At least 100 cells per condition were counted. Trypan vital dye staining is not specific for apoptosis and will also stain necrotic cells. […]

The subject of series [2] is MLO-Y4 cells stably transduced with nuclear GFP. Nature of the series: GFP nuclear stain apoptosis assay in MLO-Y4 cells. Format: cell-based, murine. Conditions: CD40L pretreatment 15 min where given, then dexamethasone, TNFα or etoposide 50 μM for 6 h. The protocol:
(§1) The MLO-Y4 cells were pretreated with CD40L (0.5-1.5 μg/ml) for 15 mins. followed by treatment with either dexamethasone at 10^−6 M (10^−7M in earlier studies), TNFα at 1 ng/ml or etoposide at 50 μM for 6 hrs. The cells were cultured in 2.5% FBS/2.5% CS in α-MEM, 5% CO2, 37° C.
GFP Nuclear Stain: Visualization of morphological features of apoptosis in the nucleus of the cells, such as chromatin condensation and nuclear fragmentation, was determined in this assay. During apoptosis the nucleus becomes shrunken and pyknotic as a result of DNA degradation. MLO-Y4 cells were stably transduced with a retroviral vector carrying the green fluorescent protein (GFP) CDNA with a nuclear localization sequence designed to target the GFP to the nucleus (Plotkin et al., 1998). […] At least 500 cells from fields selected by systematic random ampling were examined for each condition (Plotkinn et al., 1999; Jilka et al., 1999).

In another series the test system is MLO-Y4 cells. Kind of series: FACS staining for Annexin V/propidium iodide in MLO-Y4 cells. In kind it is cell-based, murine. The settings on record: CD40L pretreatment 15 min where given, then dexamethasone or TNFα for 6 h. The procedure:
as §1
FACS Staining for Annexin V/Propidium Iodide: In early stages of apoptosis the cells lose membrane asymmetry and translocate the membrane phospholipid phosphatidylserine to the outer leaflet of the plasma membrane, where it can be detected by its high affinity binding to annexin V (Rillema, 1998). Annexin V is a calcium-dependent phospholipid-binding protein that has a high affinity for phosphatidylserine. Prolonged apoptosis can cause cell death and these non-viable cells stain positive for vital dye Propidium Iodide (PI) as well as Annexin V. Apoptotic cells stain Annexin V positive and Propidium iodide negative.
The staining protocol includes washing single cell suspension twice with PBS and resuspending in 1×binding buffer (0.1 M HEPES/NaOH, pH 7.4; […]; 25 mM CaCl2) at a concentration of one million cells/ml. The cells are aliquoted (100 μl) in polypropylene tubes, incubated with annexin V FITC (5 μl) and propidium iodide (10 μl) for 15 minutes at 4° C. in the dark, and analyzed by flow cytometry within 1 hour. […]

The conditions of series [3]: approximately 2,000 women randomized; cited from earlier work.
For series [4] the following is noted: cited from earlier work.

Turning to `C[C@@H]1C[C@H]2[C@@H]3CCC4=CC(=O)C=C[C@]4(C)[C@@]3(F)[C@@H](O)C[C@]2(C)[C@@]1(O)C(=O)CO` [Dex, dexamethasone], the “Trypan Blue, percent positive cells (dead)” value in series [1] is 13.7 ± 1.4%. For the same compound, in series [2], the “GFP, percent positive cells (apoptotic)” value was 24.0* percent. Also, the “Annexin V, percent positive cells (apoptotic)” value with MLO-Y4 cells came to 23.7 ± 1.6%.
Take `COc1cc([C@@H]2c3cc4c(cc3[C@@H](O[C@@H]3O[C@@H]5CO[C@@H](C)O[C@H]5[C@H](O)[C@H]3O)[C@H]3COC(=O)[C@H]23)OCO4)cc(OC)c1O` [Etoposide, etoposide]: in series [1], the “Trypan Blue, percent positive cells (dead)” value worked out at 15.8 ± 2.0%. In series [2], the “GFP, percent positive cells (apoptotic)” value is listed as 15.9* percent.
Regarding `NCCCC(O)(P(=O)(O)O)P(=O)(O)O` [alendronate], in series [3], the “women with vertebra fractures versus placebo” value is “significantly fewer”.
Turning to `O=C(c1ccc(OCCN2CCCCC2)cc1)c1c(-c2ccc(O)cc2)sc2cc(O)ccc12` [raloxifene], the “proportion of women reporting hot flashes” value in series [4] (60 mg raloxifene daily, placebo 22.7%, no significant difference) is 26.3%. Also, the endometrial proliferation entry in series [4] (over 600 menopausal women) is “without inducing endometrial proliferation”.
